Laboratory results reported in patent US4187292A, “Antibiotics produced from the microorganism nocardice” (Takeda Chemical Industries, Ltd., priority 1977, dated 1980).
In brackets after ≈: the same amount, converted by molar mass.

Tests used:
[1] = tested on: Alcaligenes faecalis; assay: Antimicrobial activity, serial dilution method; type: cell-based; conditions: IFO 13111; Trypticase-soy agar
Description: (§1) The antimicrobial activities of Antibiotics C-14919 E-1 and E-2 were assayed by the serial dilution method using Trypticase-soy agar (BBL), glucose nutrient agar and glycerol nutrient agar as test media (Table 5). In addition, the activities against Tetrahymena pyriformis W were determined by the serial dilution method using the assay medium [Proteose-peptone 20 g, yeast extract 1 g, glucose 2 g, distilled water 1000 ml, 1 M-phosphate buffer (pH 7.0) 10 ml].

[2] = tested on: Bacillus brevis; assay: Antimicrobial activity, serial dilution method; type: cell-based; conditions: IFO 3331; Trypticase-soy agar
Description: as §1

[3] = tested on: Bacillus cereus; assay: Antimicrobial activity, serial dilution method; type: cell-based; conditions: IFO 3514; Trypticase-soy agar
Description: as §1

[4] = tested on: Bacillus megaterium; assay: Antimicrobial activity, serial dilution method; type: cell-based; conditions: IFO 12108; Trypticase-soy agar
Description: as §1

[5] = tested on: Bacillus pumilus; assay: Antimicrobial activity, serial dilution method; type: cell-based; conditions: IFO 3813; Trypticase-soy agar
Description: as §1

[6] = tested on: Bacillus subtilis 6633; assay: Antimicrobial activity, serial dilution method; type: cell-based; conditions: IFO 3134; Trypticase-soy agar
Description: as §1

[7] = tested on: Bacillus subtilis PCI219; assay: Antimicrobial activity, serial dilution method; type: cell-based; conditions: IFO 3513; Trypticase-soy agar
Description: as §1

[8] = tested on: Escherichia coli K-12; assay: Antimicrobial activity, serial dilution method; type: cell-based; conditions: IFO 3301; Trypticase-soy agar
Description: as §1

[9] = tested on: Micrococcus flavus; assay: Antimicrobial activity, serial dilution method; type: cell-based; conditions: IFO 3242; Trypticase-soy agar
Description: as §1

[10] = tested on: Proteus vulgaris; assay: Antimicrobial activity, serial dilution method; type: cell-based; conditions: IFO 3045; Trypticase-soy agar
Description: as §1

[11] = tested on: Pseudomonas aeruginosa; assay: Antimicrobial activity, serial dilution method; type: cell-based; conditions: IFO 3080; Trypticase-soy agar
Description: as §1

[12] = tested on: Salmonella typhimurium; assay: Antimicrobial activity, serial dilution method; type: cell-based; conditions: IFO 12529; Trypticase-soy agar
Description: as §1

[13] = tested on: Sarcina lutea; assay: Antimicrobial activity, serial dilution method; type: cell-based; conditions: IFO 3232; Trypticase-soy agar
Description: as §1

[14] = tested on: Serratia marcescens; assay: Antimicrobial activity, serial dilution method; type: cell-based; conditions: IFO 3046; Trypticase-soy agar
Description: as §1

[15] = tested on: Staphylococcus aureus 209P; assay: Antimicrobial activity, serial dilution method; type: cell-based; conditions: IFO 12732; Trypticase-soy agar
Description: as §1

[16] = tested on: Candida albicans; assay: Antimicrobial activity, serial dilution method (Trypticase-soy agar); type: cell-based; conditions: IFO 0583
Description: as §1

[17] = tested on: Aspergillus niger; assay: Antimicrobial activity, serial dilution method; type: cell-based; conditions: IFO 4066; Glucose nutrient agar
Description: as §1
(§2) **Glucose nutrient agar

[18] = tested on: Candida krusei; assay: Antimicrobial activity, serial dilution method; type: cell-based; conditions: IFO 1395; Glucose nutrient agar
Description: as §1, §2

[19] = tested on: Candida pseudotropicalis; assay: Antimicrobial activity, serial dilution method; type: cell-based; conditions: IFO 0617; Glucose nutrient agar
Description: as §1, §2

[20] = tested on: Candida tropicalis; assay: Antimicrobial activity, serial dilution method; type: cell-based; conditions: IFO 1400; Glucose nutrient agar
Description: as §1, §2

[21] = tested on: Candida utilis; assay: Antimicrobial activity, serial dilution method; type: cell-based; conditions: IFO 0619; Glucose nutrient agar
Description: as §1, §2

[22] = tested on: Candida; assay: Antimicrobial activity, serial dilution method; type: cell-based; conditions: IFO 1396; Glucose nutrient agar
Description: as §1, §2

[23] = tested on: Cryptococcus neoformans; assay: Antimicrobial activity, serial dilution method; type: cell-based; conditions: IFO 0410; Glucose nutrient agar
Description: as §1, §2

[24] = tested on: Hormodendrum pedrosoi; assay: Antimicrobial activity, serial dilution method; type: cell-based; conditions: IFO 6071; Glucose nutrient agar
Description: as §1, §2

[25] = tested on: Microsporum canis; assay: Antimicrobial activity, serial dilution method; type: cell-based; conditions: IFO 7863; Glucose nutrient agar
Description: as §1, §2

[26] = tested on: Microsporum cookei; assay: Antimicrobial activity, serial dilution method; type: cell-based; conditions: IFO 8303; Glucose nutrient agar
Description: as §1, §2

[27] = tested on: Penicillium chrysogenum; assay: Antimicrobial activity, serial dilution method; type: cell-based; conditions: IFO 4626; Glucose nutrient agar
Description: as §1, §2

[28] = tested on: Saccharomyces cerevisiae; assay: Antimicrobial activity, serial dilution method; type: cell-based; conditions: IFO 0209; Glucose nutrient agar
Description: as §1, §2

[29] = tested on: Trychophyton rubrum; assay: Antimicrobial activity, serial dilution method; type: cell-based; conditions: IFO 5467; Glucose nutrient agar
Description: as §1, §2

[30] = tested on: Candida albicans; assay: Antimicrobial activity, serial dilution method (Glucose nutrient agar); type: cell-based; conditions: IFO 0583
Description: as §1, §2

[31] = tested on: Mycobacterium avium; assay: Antimicrobial activity, serial dilution method; type: cell-based; conditions: Glycerol nutrient agar
Description: as §1
(§3) ***Glycerol nutrient agar

[32] = tested on: Mycobacterium phlei; assay: Antimicrobial activity, serial dilution method; type: cell-based; conditions: Glycerol nutrient agar
Description: as §1, §3

[33] = tested on: Tetrahymena pyriformis W; assay: Activity against Tetrahymena pyriformis W, serial dilution method; type: cell-based; conditions: Proteose-peptone solution, pH 7.0
Description: as §1
****Proteose-peptone solution

[34] = Acute toxicity test in mice; type: in vivo; conditions: intraperitoneal administration
Source text: The assumed LD50 as determined by intraperitoneal administration of C-14919 E-1 and E-2 in an acute toxicity test using mice as test animals are as follows.

[35] = tested on: P388 leukemia; assay: Therapeutic activity against P388 leukemia in mice; type: in vivo; conditions: for antitumour activity in terms of the extension of life spans: 5 mg/kg/day, intraperitoneally, consecutive days, P388 1×10^6 cells/animal i.p. transplanted; for life-extending effect upon tumour-bearing mammals: e.g. mouse
Description: The therapeutic activity (intraperitoneally administered for a consecutive days) of C-14919 E-1 and E-2 against P388 leukemia in mice (1×10^6 cells/animal, mouse, itraperitoneally transplanted) was investigated. The antitumour activity in terms of the extension of life spans was 144% at the dose level of 5 mg/kg/day.

[36] = Solubility; type: physicochemical
[37] = Acid, neutral or basic nature / lipophilicity; type: physicochemical
[38] = Stability in solution; type: physicochemical
[39] = tested on: Gram-positive bacteria, fungi and yeasts; assay: Antimicrobial spectrum (summary of Table 5); type: cell-based; conditions: antimicrobial spectrum of Table 5
Description: as §1

[40] = Room temp., basic solution/conditions
[41] = Room temp., neutral and weakly acidic solutions/conditions

In the case of `COC1C[C@H](C)[C@@H](OC)C2=CC(=O)C=C(NC(=O)/C(C)=C/C=C\[C@H](C)C(OC(N)=O)/C(C)=C/[C@@H](C)[C@@H]1OC)C2=O` (some centres unmarked) [C-14919 E-1], the MIC [1] is reported as > 100 µg/mL, the MIC [2] is reported as 50 µg/mL (≈ 89.5 µM) and the MIC [3] is reported as > 100 µg/mL. For the same molecule, the MIC [4] was 50 µg/mL (≈ 89.5 µM), the MIC [5] was 50 µg/mL (≈ 89.5 µM) and the MIC [6] was 50 µg/mL (≈ 89.5 µM). For the same molecule, the MIC [7] was 100 µg/mL (≈ 179 µM), the MIC [8] was > 100 µg/mL and the MIC [9] was 50 µg/mL (≈ 89.5 µM). For the same molecule, the MIC [10] was > 100 µg/mL, the MIC [11] was > 100 µg/mL and the MIC [12] was > 100 µg/mL. For the same molecule, the MIC [13] was 50 µg/mL (≈ 89.5 µM), the MIC [14] was > 100 µg/mL and the MIC [15] was > 100 µg/mL. For the same molecule, the MIC [16] was 25 µg/mL (≈ 44.7 µM), the MIC [17] was 100 µg/mL (≈ 179 µM) and the MIC [18] was > 100 µg/mL. The MIC [19] was 100 µg/mL (≈ 179 µM), the MIC [20] was > 100 µg/mL and the MIC [21] was > 100 µg/mL. The MIC [22] was 50 µg/mL (≈ 89.5 µM), the MIC [23] was > 100 µg/mL and the MIC [24] was > 100 µg/mL. For the same molecule, the MIC [25] was > 100 µg/mL, the MIC [26] was > 100 µg/mL and the MIC [27] was 50 µg/mL (≈ 89.5 µM). For the same molecule, the MIC [28] was 100 µg/mL (≈ 179 µM), the MIC [29] was > 100 µg/mL and the MIC [30] was 50 µg/mL (≈ 89.5 µM). For the same molecule, the MIC [31] was > 100 µg/mL, the MIC [32] was > 100 µg/mL and the MIC [33] was 10 µg/mL (≈ 17.9 µM). For the same molecule, the “assumed LD50” value [34] was 50 to 100 mg/kg, the “antitumour activity in terms of the extension of life spans” value [35] was 144% and the “life-extending effect upon tumour-bearing mammals” value [35] was “life-extending effect”. For the same molecule, the Solubility in acetone [36] was “Soluble”, the Solubility in benzene [36] was “Sparingly soluble” and the Solubility in butanol [36] was “Soluble”. For the same molecule, the Solubility in chloroform [36] was “Soluble”, the “Solubility in diethyl ether” value [36] was “Sparingly soluble” and the Solubility in dimethylsulfoxide [36] was “Readily soluble”. The Solubility in ethanol [36] was “Soluble”, the “Solubility in ethyl acetate” value [36] was “Soluble” and the Solubility in hexane [36] was “Insoluble”. For the same molecule, the Solubility in methanol [36] was “Soluble”, the “Solubility in methyl isobutyl ketone” value [36] was “Soluble” and the “Solubility in petroleum ether” value [36] was “Insoluble”. The Solubility in water [36] was “Insoluble”, the “Acid, neutral or basic” value [37] was “a neutral substance” and the lipophilicity [37] was “lipophyl”. For the same molecule, the Stability ([38]; 80° C., 1 hr.) was “unstable”, the Stability [38, 40] was “Unstable” and the Stability [38, 41] was “Stable”. The antimicrobial activity [39] was “display activity against Gram-positive bacteria, fungi and yeasts”.

With `COC1CC(C)C(OC)c2cc(O)cc(c2O)NC(=O)/C(C)=C/C=C\C(C)C(OC(N)=O)/C(C)=C/C(C)C1OC` (centres unmarked) [C-14919 E-2] the MIC [1] was 100 µg/mL (≈ 178 µM), the MIC [2] was 50 µg/mL (≈ 89.2 µM) and the MIC [3] was > 100 µg/mL. The MIC [4] was 50 µg/mL (≈ 89.2 µM), the MIC [5] was 100 µg/mL (≈ 178 µM) and the MIC [6] was 100 µg/mL (≈ 178 µM). The MIC [7] was > 100 µg/mL, the MIC [8] was > 100 µg/mL and the MIC [9] was 50 µg/mL (≈ 89.2 µM). For the same molecule, the MIC [10] was > 100 µg/mL, the MIC [11] was > 100 µg/mL and the MIC [12] was > 100 µg/mL. For the same molecule, the MIC [13] was 50 µg/mL (≈ 89.2 µM), the MIC [14] was > 100 µg/mL and the MIC [15] was > 100 µg/mL. For the same molecule, the MIC [16] was 6.25 µg/mL (≈ 11.1 µM), the MIC [17] was 100 µg/mL (≈ 178 µM) and the MIC [18] was > 100 µg/mL. The MIC [19] was 100 µg/mL (≈ 178 µM), the MIC [20] was > 100 µg/mL and the MIC [21] was > 100 µg/mL. The MIC [22] was 25 µg/mL (≈ 44.6 µM), the MIC [23] was > 100 µg/mL and the MIC [24] was > 100 µg/mL. The MIC [25] was > 100 µg/mL, the MIC [26] was > 100 µg/mL and the MIC [27] was 25 µg/mL (≈ 44.6 µM). For the same molecule, the MIC [28] was 100 µg/mL (≈ 178 µM), the MIC [29] was > 100 µg/mL and the MIC [30] was 25 µg/mL (≈ 44.6 µM). For the same molecule, the MIC [31] was > 100 µg/mL, the MIC [32] was > 100 µg/mL and the MIC [33] was 10 µg/mL (≈ 17.8 µM). The “assumed LD50” value [34] was 25 to 100 mg/kg, the “antitumour activity in terms of the extension of life spans” value [35] was 144% and the “life-extending effect upon tumour-bearing mammals” value [35] was “life-extending effect”. For the same molecule, the Solubility in acetone [36] was “Soluble”, the Solubility in benzene [36] was “Sparingly soluble” and the Solubility in butanol [36] was “Soluble”. The Solubility in chloroform [36] was “Sparingly soluble”, the “Solubility in diethyl ether” value [36] was “Sparingly soluble” and the Solubility in dimethylsulfoxide [36] was “Readily soluble”. The Solubility in ethanol [36] was “Soluble”, the “Solubility in ethyl acetate” value [36] was “Soluble” and the Solubility in hexane [36] was “Insoluble”. The Solubility in methanol [36] was “Soluble”, the “Solubility in methyl isobutyl ketone” value [36] was “Soluble” and the “Solubility in petroleum ether” value [36] was “Insoluble”. For the same molecule, the Solubility in water [36] was “Sparingly soluble”, the “Acid, neutral or basic” value [37] was “a neutral substance” and the lipophilicity [37] was “lipophyl”. For the same molecule, the Stability ([38]; 80° C., 1 hr.) was “unstable”, the Stability [38, 40] was “Unstable” and the Stability [38, 41] was “Stable”. For the same molecule, the antimicrobial activity [39] was “display activity against Gram-positive bacteria, fungi and yeasts”.
